Where two headings read alike, the source gives them in different places.
What was measured:
human TLR9 = human TLR9 (Homo sapiens (Human), UniProt Q9NR96); assay: TLR9 inhibition reporter assay (HEK-Blue SEAP); settings: read-out: TLR9 IC50;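 further: SEAP driven by an IFN-β minimal promoter with NF-κB and AP-1 sites, read after 22 h, compounds dosed 0.05 nM–50 µM, inhibition scaled between agonist plus DMSO and reference-inhibitor wells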
human TLR7 = human TLR7 (Homo sapiens (Human), UniProt Q9NYK1); assay: TLR7 inhibition reporter assay (HEK-Blue SEAP); assay type: cell-based
Sequence of human TLR7 (Q9NYK1 27-1049): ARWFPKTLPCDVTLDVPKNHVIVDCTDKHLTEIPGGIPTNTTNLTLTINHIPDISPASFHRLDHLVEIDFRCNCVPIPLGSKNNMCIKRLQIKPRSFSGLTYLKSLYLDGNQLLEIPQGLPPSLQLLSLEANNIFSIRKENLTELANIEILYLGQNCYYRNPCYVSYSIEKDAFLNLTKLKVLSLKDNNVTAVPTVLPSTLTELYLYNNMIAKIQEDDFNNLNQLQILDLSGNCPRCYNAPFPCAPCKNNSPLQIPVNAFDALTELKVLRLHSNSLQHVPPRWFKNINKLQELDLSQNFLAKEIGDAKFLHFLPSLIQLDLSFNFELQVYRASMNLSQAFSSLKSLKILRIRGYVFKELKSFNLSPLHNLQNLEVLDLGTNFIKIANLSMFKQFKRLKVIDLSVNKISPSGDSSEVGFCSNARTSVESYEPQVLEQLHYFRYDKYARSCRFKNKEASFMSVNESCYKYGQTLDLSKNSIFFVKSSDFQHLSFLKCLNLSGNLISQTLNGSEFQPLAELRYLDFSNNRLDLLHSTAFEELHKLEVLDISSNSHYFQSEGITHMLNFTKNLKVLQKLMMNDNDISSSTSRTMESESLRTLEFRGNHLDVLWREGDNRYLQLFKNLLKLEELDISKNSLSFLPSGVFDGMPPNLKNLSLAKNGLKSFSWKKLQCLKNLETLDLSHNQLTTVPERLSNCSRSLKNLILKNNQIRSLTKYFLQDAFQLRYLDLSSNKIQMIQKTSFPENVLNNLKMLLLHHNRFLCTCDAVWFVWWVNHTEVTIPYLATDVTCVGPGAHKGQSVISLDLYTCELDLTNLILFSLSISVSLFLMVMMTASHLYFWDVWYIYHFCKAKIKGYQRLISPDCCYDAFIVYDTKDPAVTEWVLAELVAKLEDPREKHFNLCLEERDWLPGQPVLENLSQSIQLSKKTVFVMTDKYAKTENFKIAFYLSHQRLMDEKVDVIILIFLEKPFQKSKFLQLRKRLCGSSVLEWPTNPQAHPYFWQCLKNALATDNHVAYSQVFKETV

human TLR8 = human TLR8 (Homo sapiens (Human), UniProt Q9NR97); assay: TLR8 inhibition reporter assay (HEK-Blue SEAP); settings: read-out: TLR8 IC50;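 further: SEAP driven by IFN-β minimal promoter carrying NF-κB and AP-1 sites, compounds dosed 0.05 nM to 50 µM for 22 h, inhibition scaled between agonist-plus-DMSO and reference-inhibitor wells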
Sequence of human TLR8 (Q9NR97 27-1041): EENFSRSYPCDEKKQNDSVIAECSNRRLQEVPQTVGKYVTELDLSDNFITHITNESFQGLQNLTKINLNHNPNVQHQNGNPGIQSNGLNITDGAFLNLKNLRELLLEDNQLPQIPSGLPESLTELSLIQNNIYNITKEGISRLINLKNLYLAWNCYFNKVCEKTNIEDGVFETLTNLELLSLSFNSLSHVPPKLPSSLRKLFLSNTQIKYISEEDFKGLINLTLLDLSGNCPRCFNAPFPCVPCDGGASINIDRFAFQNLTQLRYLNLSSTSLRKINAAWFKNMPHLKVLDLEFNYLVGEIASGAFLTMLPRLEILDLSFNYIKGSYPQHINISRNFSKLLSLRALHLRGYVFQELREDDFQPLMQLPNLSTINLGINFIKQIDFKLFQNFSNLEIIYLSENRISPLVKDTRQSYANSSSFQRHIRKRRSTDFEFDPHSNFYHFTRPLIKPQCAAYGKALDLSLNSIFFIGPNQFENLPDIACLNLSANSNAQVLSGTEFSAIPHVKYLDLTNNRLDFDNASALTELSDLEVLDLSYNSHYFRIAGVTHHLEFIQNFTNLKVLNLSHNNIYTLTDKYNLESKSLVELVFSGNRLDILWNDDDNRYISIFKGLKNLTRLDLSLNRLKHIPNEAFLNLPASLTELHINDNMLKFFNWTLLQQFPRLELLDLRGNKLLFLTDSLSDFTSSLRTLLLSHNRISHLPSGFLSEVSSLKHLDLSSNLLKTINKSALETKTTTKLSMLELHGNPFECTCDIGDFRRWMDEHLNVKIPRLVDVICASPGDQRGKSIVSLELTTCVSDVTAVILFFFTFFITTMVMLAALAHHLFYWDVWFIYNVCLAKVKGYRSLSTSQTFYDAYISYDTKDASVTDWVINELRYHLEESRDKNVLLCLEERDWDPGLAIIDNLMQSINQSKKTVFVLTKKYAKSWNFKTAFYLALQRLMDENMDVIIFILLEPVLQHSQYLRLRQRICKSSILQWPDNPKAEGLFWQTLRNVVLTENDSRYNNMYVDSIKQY

[1] = HEK-Blue cells overexpressing human TLR9, ODN2006 5 nM stimulation, SEAP reporter
[2] = HEK-Blue cells overexpressing human TLR7, gardiquimod 7.5 μM stimulation, SEAP reporter
[3] = HEK-Blue cells overexpressing human TLR8, R848 15.9 μM stimulation, SEAP reporter
[4] = HEK-Blue cells overexpressing human TLR9, SEAP reporter, ODN2006 5 nM
[5] = HEK-Blue cells overexpressing human TLR7, SEAP reporter, gardiquimod 7.5 μM
[6] = HEK-Blue cells overexpressing human TLR8, SEAP reporter, R848 15.9 μM

Sequence of human TLR9 (Q9NR96 26-1032): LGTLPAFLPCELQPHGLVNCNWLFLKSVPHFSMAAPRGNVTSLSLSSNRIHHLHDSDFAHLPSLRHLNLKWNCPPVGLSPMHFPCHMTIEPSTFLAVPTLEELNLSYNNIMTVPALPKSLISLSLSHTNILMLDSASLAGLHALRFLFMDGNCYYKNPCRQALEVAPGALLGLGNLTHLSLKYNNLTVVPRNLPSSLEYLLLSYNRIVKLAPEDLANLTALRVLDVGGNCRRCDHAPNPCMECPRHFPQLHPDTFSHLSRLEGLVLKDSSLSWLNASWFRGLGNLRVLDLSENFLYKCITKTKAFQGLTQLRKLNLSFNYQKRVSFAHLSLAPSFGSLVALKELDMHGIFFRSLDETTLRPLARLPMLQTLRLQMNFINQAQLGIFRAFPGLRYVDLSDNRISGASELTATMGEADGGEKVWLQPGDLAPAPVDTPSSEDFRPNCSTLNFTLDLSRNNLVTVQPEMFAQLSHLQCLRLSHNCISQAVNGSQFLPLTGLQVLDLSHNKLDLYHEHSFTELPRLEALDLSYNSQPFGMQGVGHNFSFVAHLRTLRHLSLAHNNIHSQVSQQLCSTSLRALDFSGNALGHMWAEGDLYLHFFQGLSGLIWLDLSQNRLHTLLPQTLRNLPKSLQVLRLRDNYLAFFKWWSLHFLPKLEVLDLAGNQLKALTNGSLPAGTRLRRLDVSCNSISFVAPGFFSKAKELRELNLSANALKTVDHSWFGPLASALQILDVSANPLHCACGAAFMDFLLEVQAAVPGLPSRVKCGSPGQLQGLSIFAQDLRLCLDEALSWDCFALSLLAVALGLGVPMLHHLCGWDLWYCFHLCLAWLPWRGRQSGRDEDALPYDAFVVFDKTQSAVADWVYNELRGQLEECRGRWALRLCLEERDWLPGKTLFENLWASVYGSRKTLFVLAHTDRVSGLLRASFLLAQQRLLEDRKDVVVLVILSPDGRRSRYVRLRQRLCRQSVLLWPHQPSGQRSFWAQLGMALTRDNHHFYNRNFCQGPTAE

Row | IC50 (human TLR9; [1]) [µM] | IC50 (human TLR7; [2]) [µM] | IC50 (human TLR8; [3]) [µM] | IC50 (human TLR9; [4]) [µM] | IC50 (human TLR7; [5]) [µM] | IC50 (human TLR8; [6]) [µM] | Structure (SMILES)
1 | 4.69 | 0.0053 | 0.015 | – | – | – | Cc1c(-c2[nH]c3ccc(C4CCC(N(C)CCC#N)CC4)nc3c2C(C)C)cn2ncnc2c1C (stereo not drawn) [Example 366]
2 | 1.61 | 0.0015 | 0.0025 | – | – | – | Cc1c(-c2[nH]c3ccc(C4CCC(N(C)CC(=O)N(C)C)CC4)nc3c2C(C)C)cn2ncnc2c1C (stereo not drawn) [Example 368, 2-((4-(2-(7,8-dimethyl-[1,2,4]triazolo[1,5-a]pyridin-6-yl)-3-isopropyl-1H-pyrrolo[3,2-b]pyridin-5-yl)cyclohexyl)(methyl)amino)-N,N-dimethylacetamide]
3 | > 50 | 0.0086 | 0.023 | – | – | – | Cc1c(-c2[nH]c3ccc(C4CCC(N5CC(F)(F)C5)CC4)nc3c2C(C)C)cn2ncnc2c1C (stereo not drawn) [Example 370]
4 | 4.36 | 0.006 | 0.014 | – | – | – | C#CCNC1CCC(c2ccc3[nH]c(-c4cn5ncnc5c(C)c4C)c(C(C)C)c3n2)CC1 (stereo not drawn) [Example 371]
5 | 1.46 | 0.0032 | 0.0076 | – | – | – | Cc1c(-c2[nH]c3ccc(C4CCC(N5CCC[C@@H]5CO)CC4)nc3c2C(C)C)cn2ncnc2c1C (stereo partly drawn) [Example 372]
6 | 1.96 | 0.0086 | 0.0083 | – | – | – | Cc1c(-c2[nH]c3ccc(C4CCC(NCCC(F)(F)F)CC4)nc3c2C(C)C)cn2ncnc2c1C (stereo not drawn) [Example 373]
7 | 21.6 | 0.036 | 0.187 | – | – | – | Cc1c(-c2[nH]c3ccc(C4CCC(N5CC(F)(F)C5)CC4)nc3c2C(C)C)cn2ncnc2c1C (stereo not drawn) [Example 374]
8 | 2.72 | 0.00087 | 0.0044 | – | – | – | C#CCNC1CCC(c2ccc3[nH]c(-c4cn5ncnc5c(C)c4C)c(C(C)C)c3n2)CC1 (stereo not drawn) [Example 375]
9 | 1.03 | 0.00071 | 0.0012 | – | – | – | Cc1c(-c2[nH]c3ccc(C4CCC(NCCC(F)(F)F)CC4)nc3c2C(C)C)cn2ncnc2c1C (stereo not drawn) [Example 376]
10 | 0.767 | 0.0021 | 0.0022 | – | – | – | Cc1c(-c2[nH]c3ccc(C4CCC(N5CCC[C@@H]5CO)CC4)nc3c2C(C)C)cn2ncnc2c1C (stereo partly drawn) [Example 377]
11 | 1.64 | 0.0016 | 0.0046 | – | – | – | CCN(CC)C1CCC(c2ccc3[nH]c(-c4cn5ncnc5c(C)c4C)c(C(C)C)c3n2)CC1 (stereo not drawn) [Example 378]
12 | 0.909 | 0.0026 | 0.0047 | – | – | – | Cc1c(-c2[nH]c3ccc(C4CCC(NCCO)CC4)nc3c2C(C)C)cn2ncnc2c1C (stereo not drawn) [Example 379]
13 | 1.88 | 0.0014 | 0.0016 | – | – | – | Cc1c(-c2[nH]c3ccc(C4CCC(N(C)C5CC5)CC4)nc3c2C(C)C)cn2ncnc2c1C (stereo not drawn) [Example 380]
14 | 8.06 | 0.0037 | 0.0055 | – | – | – | Cc1c(-c2[nH]c3ccc(C4CCC(N5CCC(F)(F)CC5)CC4)nc3c2C(C)C)cn2ncnc2c1C (stereo not drawn) [Example 381]
15 | > 50 | 0.0078 | 0.022 | – | – | – | Cc1c(-c2[nH]c3ccc(C4CCC(N5CCS(=O)(=O)CC5)CC4)nc3c2C(C)C)cn2ncnc2c1C (stereo not drawn) [Example 382]
16 | > 50 | 0.033 | 0.167 | – | – | – | Cc1c(-c2[nH]c3ccc(C4CCC(N5CCS(=O)(=O)CC5)CC4)nc3c2C(C)C)cn2ncnc2c1C (stereo not drawn) [Example 383]
17 | 1.53 | 0.013 | 0.025 | – | – | – | Cc1c(-c2[nH]c3ccc(C4CCC(NCCC#N)CC4)nc3c2C(C)C)cn2ncnc2c1C (stereo not drawn) [Example 384]
18 | 11.2 | 0.022 | 0.046 | – | – | – | Cc1c(-c2[nH]c3ccc(C4CCC(N5CCC(F)(F)CC5)CC4)nc3c2C(C)C)cn2ncnc2c1C (stereo not drawn) [Example 385]
19 | 1.44 | 0.0015 | 0.0042 | – | – | – | Cc1c(-c2[nH]c3ccc(C4CCC(N5CCC5)CC4)nc3c2C(C)C)cn2ncnc2c1C (stereo not drawn) [Example 386]

Row | IC50 (human TLR9; [1]) [µM] | IC50 (human TLR7; [2]) [µM] | IC50 (human TLR8; [3]) [µM] | IC50 (human TLR9; [4]) [µM] | IC50 (human TLR7; [5]) [µM] | IC50 (human TLR8; [6]) [µM] | Structure (SMILES)
20 | 5.51 | 0.0072 | 0.019 | – | – | – | Cc1c(-c2[nH]c3ccc(C4CCC(N(C)C5CC5)CC4)nc3c2C(C)C)cn2ncnc2c1C (stereo not drawn) [Example 387]
21 | 0.891 | 0.00087 | 0.0022 | – | – | – | CCN(C)C1CCC(c2ccc3[nH]c(-c4cn5ncnc5c(C)c4C)c(C(C)C)c3n2)CC1 (stereo not drawn) [Example 388]
22 | 0.923 | 0.00045 | 0.0016 | – | – | – | COCCN(C)C1CCC(c2ccc3[nH]c(-c4cn5ncnc5c(C)c4C)c(C(C)C)c3n2)CC1 (stereo not drawn) [Example 389]
23 | 3.09 | 0.0016 | 0.0076 | – | – | – | CCN(C)C1CCC(c2ccc3[nH]c(-c4cn5ncnc5c(C)c4C)c(C(C)C)c3n2)CC1 (stereo not drawn) [Example 390]
24 | 2.45 | 0.0026 | 0.014 | – | – | – | COCCN(C)C1CCC(c2ccc3[nH]c(-c4cn5ncnc5c(C)c4C)c(C(C)C)c3n2)CC1 (stereo not drawn) [Example 391]
25 | 1.75 | 0.0032 | 0.0061 | – | – | – | Cc1c(-c2[nH]c3ccc(C4CCC(N5CCC[C@H]5CO)CC4)nc3c2C(C)C)cn2ncnc2c1C (stereo partly drawn) [Example 392]
26 | 0.36 | 0.00047 | 0.0013 | – | – | – | Cc1c(-c2[nH]c3ccc(C4CCC(N5CCC[C@H]5CO)CC4)nc3c2C(C)C)cn2ncnc2c1C (stereo partly drawn) [Example 393]
27 | 1.41 | 0.0014 | 0.0015 | – | – | – | Cc1ncc(CN(C)C2CCC(c3ccc4[nH]c(-c5cn6ncnc6c(C)c5C)c(C(C)C)c4n3)CC2)cn1 (stereo not drawn) [Example 394]
28 | – | – | – | 1.62 | 0.0074 | 0.01 | COc1ncc(CN(C)C2CCC(c3ccc4[nH]c(-c5cn6ncnc6c(C)c5C)c(C(C)C)c4n3)CC2)cn1 (stereo not drawn) [Example 395]
29 | – | – | – | 1.53 | 0.0017 | 0.017 | Cc1c(-c2[nH]c3ccc(C4CCC(N(C)C(=O)CN(C)C)CC4)nc3c2C(C)C)cn2ncnc2c1C (stereo not drawn) [Example 396]
30 | – | – | – | 2.4 | 0.0063 | 0.01 | Cc1c(-c2[nH]c3ccc(C4CCC(N(C)Cc5c[nH]nn5)CC4)nc3c2C(C)C)cn2ncnc2c1C (stereo not drawn) [Example 397]
31 | – | – | – | 4.12 | 0.0038 | 0.017 | Cc1c(-c2[nH]c3ccc(C4CCC(N(C)CC(N)=O)CC4)nc3c2C(C)C)cn2ncnc2c1C (stereo not drawn) [Example 398]
32 | – | – | – | 1.55 | 0.00074 | 0.0029 | CNC(=O)CN(C)C1CCC(c2ccc3[nH]c(-c4cn5ncnc5c(C)c4C)c(C(C)C)c3n2)CC1 (stereo not drawn) [Example 400]
33 | – | – | – | 5.72 | 0.0057 | 0.0064 | Cc1c(-c2[nH]c3ccc(C4CCC(N(C)C5COC5)CC4)nc3c2C(C)C)cn2ncnc2c1C (stereo not drawn) [Example 401]
34 | – | – | – | 5.15 | 0.031 | 0.043 | Cc1ncc(CN(C)C2CCC(c3ccc4[nH]c(-c5cn6ncnc6c(C)c5C)c(C(C)C)c4n3)CC2)cn1 (stereo not drawn) [Example 402]
35 | – | – | – | 4.28 | 0.0077 | 0.044 | CNC(=O)CN(C)C1CCC(c2ccc3[nH]c(-c4cn5ncnc5c(C)c4C)c(C(C)C)c3n2)CC1 (stereo not drawn) [Example 403]
36 | – | – | – | 1.54 | 0.0038 | 0.0093 | Cc1c(-c2[nH]c3ccc(C4CCC(N(C)C(=O)CN(C)C)CC4)nc3c2C(C)C)cn2ncnc2c1C (stereo not drawn) [Example 404]
37 | – | – | – | 1.43 | 0.0036 | 0.0025 | COc1ncc(CN(C)C2CCC(c3ccc4[nH]c(-c5cn6ncnc6c(C)c5C)c(C(C)C)c4n3)CC2)cn1 (stereo not drawn) [Example 405]
